Results on four compounds are retold here after article PMC9562916, “Investigation of the Phenolic Component Bioavailability Using the In Vitro Digestion/Caco-2 Cell Model, as well as the Antioxidant Activity in Chinese Red Wine” (Foods, 2022).

Marks after values point to notes of the source that are not given here.

The first data set deals with Caco-2 cell monolayer. The experiment in a line: Caco-2 transepithelial transport assay of digested red wine. Format: in vitro ADME, human. Particulars: Caco-2. The protocol: Caco-2 cells were inoculated following the method of Hubatsch et al. […] Briefly, a 5% v/v of CO2 incubator at 37 °C was used to house the cells. […] Caco-2 cells were sub-cultured when they reached 80-90% of the adherent growth by treating them with a 0.05% v/v of trypsin-EDTA solution. The culture between passages 35 and 40 was used for the following experiment. Transport experiments were performed according to the method of Wu et al. with slight modifications. First, 1.0 × 10^5 Caco-2 cells were inoculated onto 12 mm transparent cell culture plates (Transwell). Media were carefully injected into the apical (0.5 mL) and basolateral (1.5 mL) sides of the Transwell plates. The cell culture medium had to be replaced every other day until the cells formed a monolayer. The integrity and transport ability of the Caco-2 cell monolayer were evaluated by measuring the trans-epithelial electrical resistance (TEER) with a MilliCell voltammeter (Millicell ERS-2, Merck Millipore, Billerica, MA, USA). […] When the cell activity exceeded 0.9, a transport experiment was conducted. The apical side was injected with a digested red wine sample (0.5 mL) and was thoroughly mixed with […] Balanced Salt Solution (HBSS) buffer solution. […] The cells were then cultured in a 37 °C, 5% CO2 incubator. Then, 0.25 mL samples were separately taken from the basolateral side of the monolayer. An equal volume of HBSS buffer was then added every half hour from the beginning of the culture until the end of the culture at 6 h. The collected samples were subsequently filtered and placed in the sample bottle for further HPLC analysis. This experiment was repeated several times to collect enough samples for the next antioxidant test. […] The Agilent 1100 series HPLC instrument was used; it was equipped with a degasser, quaternary pump solvent delivery, a DAD system, and a single quadrupole mass detector coupled with an electrospray ionization LC-MS interface. […] The column temperature was kept at 30 °C, the injection volume was 10 μL, and the flow rate was 0.3 mL/min. The eluents were water and formic acid in a 99:1 (v/v) (A) ratio and 100% acetonitrile (B). The gradient elution procedure was as follows: (1) 3% B solvent at 0 min, (2) 3 to 16% B solvent at 10 min, (3) 16 to 20% B solvent at 30 min, and (4) 20% B solvent maintained until the procedure was completed. The MS configuration was as follows: ESI, negative ion mode, nebulizer pressure of 30 psi, a dry gas flow rate of 10 mL/min, dry gas temperature of 350 °C, and a scan rate of 100~1200 m/z. PCs were determined according to their retention times, UV/VIS spectra, and high-resolution MS spectra, in addition to a comparison with the standards. […] If a standard was unavailable, a structurally related compound was used. Putative annotations were made using spectral features and literature information on the chromatographic properties and mass spectra records from the metabolome database. A standard curve was drawn using methanol solutions with different concentrations as the standards. […] PCs All of the samples were determined in triplicate.
In the case of `COc1cc(-c2[o+]c3cc(O)cc(O)c3cc2OC2OC(COC(C)=O)C(O)C(O)C2O)cc(O)c1O` (stereo not drawn) [Petunidin-3-acglc], the “Apparent Permeability Coefficients, Cabernet” value is 11.53 ± 2.01 ^a ×10^−6 cm/s; the “Apparent Permeability Coefficients, Helanshan” value is recorded as 11.78 ± 2.11 ^a ×10^−6 cm/s; the “Apparent Permeability Coefficients, Tianzhu” value is on record as 11.46 ± 2.05 ^a ×10^−6 cm/s; the “PC Contents, Cabernet, Transmembrane” value was 0.19 ± 0.008 ^a mg/L. The “PC Contents, Helanshan, Transmembrane” value was 0.18 ± 0.005 ^a mg/L and the “PC Contents, Tianzhu, Transmembrane” value is recorded as 0.23 ± 0.008 ^a mg/L.
On to `COc1cc(-c2[o+]c3cc(O)cc(O)c3cc2O[C@@H]2O[C@H](CO)[C@@H](O)[C@H](O)[C@H]2O)cc(O)c1O` [Petunidin-3-glc], for which the “Apparent Permeability Coefficients, Cabernet” value is 16.89 ± 2.96 ^a ×10^−6 cm/s; the “Apparent Permeability Coefficients, Helanshan” value is listed as 17.56 ± 3.32 ^a ×10^−6 cm/s; the “Apparent Permeability Coefficients, Tianzhu” value was 17.13 ± 3.01 ^a ×10^−6 cm/s; the “PC Contents, Cabernet, Transmembrane” value is listed as 1.56 ± 0.07 ^a mg/L. The “PC Contents, Helanshan, Transmembrane” value was 1.40 ± 0.05 ^a mg/L and the “PC Contents, Tianzhu, Transmembrane” value is 1.06 ± 0.04 ^a mg/L.
On to `COc1cc(-c2oc3cc(O)cc(O)c3c(=O)c2O[C@@H]2O[C@H](CO)[C@@H](O)[C@H](O)[C@H]2O)cc(OC)c1O` [Syringetin-3-glc], for which the “Apparent Permeability Coefficients, Cabernet” value is 2.91 ± 0.21 ^a ×10^−6 cm/s; the “Apparent Permeability Coefficients, Helanshan” value is on record as 2.81 ± 0.29 ^a ×10^−6 cm/s; the “Apparent Permeability Coefficients, Tianzhu” value is recorded as 2.88 ± 0.23 ^a ×10^−6 cm/s; the “PC Contents, Cabernet, Transmembrane” value is 1.23 ± 0.04 ^a mg/L. Moreover, the “PC Contents, Helanshan, Transmembrane” value is listed as 0.91 ± 0.03 ^a mg/L and the “PC Contents, Tianzhu, Transmembrane” value is 6.01 ± 0.22 ^a mg/L.
As for Procyanidin dimer, the “Apparent Permeability Coefficients, Cabernet” value was 6.41 ± 1.05 ^a ×10^−6 cm/s; the “Apparent Permeability Coefficients, Helanshan” value was 6.48 ± 0.98 ^a ×10^−6 cm/s; the “Apparent Permeability Coefficients, Tianzhu” value is reported as 6.54 ± 0.86 ^a ×10^−6 cm/s; the “PC Contents, Cabernet, Transmembrane” value is recorded as 0.58 ± 0.03 ^a mg/L. In addition, the “PC Contents, Helanshan, Transmembrane” value is given as 0.62 ± 0.02 ^a mg/L and the “PC Contents, Tianzhu, Transmembrane” value is on record as 1.52 ± 0.08 ^a mg/L.

Test system in a further data set: not listed separately
The experiment in a line: PC content of red wine before and after in vitro simulated gastrointestinal digestion (HPLC). Format: in vitro ADME.
Details: not given
The protocol: The digestion procedure was carried out by adapting the method of Brodkorb et al. and Gómez et al.. […] One milliliter (50 units/mL) of porcine amylase was prepared in a 15 mM Na₃PO₄ buffer solution (pH adjusted to 6.8) containing 1.5 mM CaCl2, and it was added to the red wine solution. After 5 min, 4.5 mL of 0.12 M HCl was added to the mixture to adjust the pH to 2.4. One milliliter of porcine pepsin (0.02 mg/L) was dissolved in a 20 mM HCl solution. The mixture was then maintained at 37 °C for 120 min. The digestion mixture was then centrifuged at 8000× g for 15 min to obtain samples from the gastric digestion phase. […] The mixture was incubated at pH 6.5 at 37 °C for 3 h before being centrifuged. The extracts of the intestinal phase were the supernatants. The same operation was done three times, and each sample was stored in a refrigerator (−20 °C) immediately for further analysis.
The Pati method was adopted, with slight modifications, to measure the content of the PCs. The Agilent 1100 series HPLC instrument was used; it was equipped with a degasser, quaternary pump solvent delivery, a DAD system, and a single quadrupole mass detector coupled with an electrospray ionization LC–MS interface. Briefly, th samples were injected into a Zorbax SB C18 reversed-phase column (5 µm,150 × 2.1 mm, Agilent Technologies, Santa Clara, CA, USA) using an autosampler after filtering through 0.45 µm cellulose acetate syringe filters. The column temperature was kept at 30 °C, the injection volume was 10 µL, and the flow rate was 0.3 mL/min. The eluents were water and formic acid in a 99:1 (v/v) (A) ratio and 100% acetonitrile (B). […] The MS configuration was as follows: ESI, negative ion mode, nebulizer pressure of 30 psi, a dry gas flow rate of 10 mL/min, dry gas temperature of 350 °C, and a scan rate of 100~1200 m/z. PCs were determined according to their retention times, UV/VIS spectra, and high-resolution MS spectra, in addition to a comparison with the standards. […] Putative annotations were made using spectral features and literature information on the chromatographic properties and mass spectra records from the metabolome database. A standard curve was drawn using methanol solutions with different concentrations as the standards. The limits of detection and quantitation were calculated according to the signal-to-noise ratio (limit of detection: signal-to-noise ratio ≥ 3; limit of quantitation: signal-to-noise ratio ≥ 10). […] PCs All of the samples were determined in triplicate.
Take `COc1cc(-c2[o+]c3cc(O)cc(O)c3cc2OC2OC(COC(C)=O)C(O)C(O)C2O)cc(O)c1O` (stereo not drawn) [Petunidin-3-acglc]: the “PC Contents, Cabernet, After Digestion” value was 1.05 ± 0.05 ^b mg/L; the “PC Contents, Helanshan, After Digestion” value is reported as 0.98 ± 0.05 ^b mg/L; the “PC Contents, Tianzhu, After Digestion” value was 1.17 ± 0.04 ^b mg/L.
Taken in the same sequence, the figures for `COc1cc(-c2[o+]c3cc(O)cc(O)c3cc2O[C@@H]2O[C@H](CO)[C@@H](O)[C@H](O)[C@H]2O)cc(O)c1O` [Petunidin-3-glc] were 5.79 ± 0.27 ^b mg/L, 4.98 ± 0.19 ^b mg/L and 5.33 ± 0.21 ^b mg/L.
Taken in the same sequence, the figures for `COc1cc(-c2oc3cc(O)cc(O)c3c(=O)c2O[C@@H]2O[C@H](CO)[C@@H](O)[C@H](O)[C@H]2O)cc(OC)c1O` [Syringetin-3-glc] were 26.34 ± 0.90 ^b mg/L, 20.17 ± 1.01 ^b mg/L and 30.19 ± 1.03 ^b mg/L.
Taken in the same sequence, the figures for Procyanidin dimer were 5.64 ± 0.26 ^b mg/L, 5.98 ± 0.27 ^b mg/L and 7.64 ± 0.32 ^b mg/L.
